According to US8748415B2 (priority 2011, dated 2014):

Test system: recombinant NL4-3 virus (Renilla luciferase in nef, Gag P373S)
Assay: HIV cell culture assay (luciferase activity in MT-2 cells infected with NLRluc recombinant virus)
Type: cell-based
Conditions: NL43, MT-2 cells infected 4-5 days with NLRluc recombinant virus
Experimental: HIV cell culture assay—MT-2 cells and 293T cells were obtained from the NIH AIDS Research and Reference Reagent Program. MT-2 cells were propagated in RPMI 1640 media supplemented with 10% heat inactivated fetal bovine serum, […]. The 293T cells were propagated in DMEM media supplemented with 10% heat inactivated fetal bovine serum (FBS), 100 units/ml penicillin G and 100 μg/ml streptomycin. The proviral DNA clone of NL4-3 was obtained from the NIH AIDS Research and Reference Reagent Program. A recombinant NL4-3 virus, in which a section of the nef gene from NL4-3 was replaced with the Renilla luciferase gene, was used as a reference virus. In addition, residue Gag P373 was converted to P373S. Briefly, the recombinant virus was prepared by transfection of the altered proviral clone of NL4-3. Transfections were performed in 293T cells using LipofectAMINE PLUS from Invitrogen (Carlsbad, Calif.), according to manufacturer's instruction. The virus was titered in MT-2 cells using luciferase enzyme activity as a marker. Luciferase was quantitated using the Dual Luciferase kit from Promega (Madison, Wis.), with modifications to the manufacturer's protocol. The diluted Passive Lysis solution was pre-mixed with the re-suspended Luciferase Assay Reagent and the re-suspended Stop & Glo Substrate (2:1:1 ratio). Fifty (50) μL of the mixture was added to each aspirated well on assay plates and luciferase activity was measured immediately on a Wallac TriLux (Perkin-Elmer). Antiviral activities of inhibitors toward the recombinant virus were quantified by measuring luciferase activity in cells infected for 4-5 days with NLRluc recombinants in the presence serial dilutions of the inhibitor. Table 1 is the key for the data in Table 2.

Compound	EC50 (class symbol) [nM]	EC50 (numeric value) [nM]
C=C(C)[C@@H]1CC[C@]2(CNCCN3CCC(F)(F)CC3)CC[C@]3(C)[C@H](CC[C@@H]4[C@@]5(C)CC=C(c6ccc(C(=O)O)cc6)C(C)(C)[C@@H]5CC[C@]43C)[C@@H]12 [Example 48, 4-((1R,3aS,5aR,5bR,7aR,11aS,11bR,13aR,13bR)-3a-((2-(4,4-difluoropiperidin-1-yl)ethylamino)methyl)-5a,5b,8,8,11a-pentamethyl-1-(prop-1-en-2-yl)-2,3,3a,4,5,5a,5b,6,7,7a,8,11,11a,11b,12,13,13a,13b-octadecahydro-1H-cyclopenta[a]chrysen-9-yl)benzoic acid]	< 100	
C=C(C)[C@@H]1CC[C@]2(CNCC3CCCN3CC)CC[C@]3(C)[C@H](CC[C@@H]4[C@@]5(C)CC=C(c6ccc(C(=O)O)cc6)C(C)(C)[C@@H]5CC[C@]43C)[C@@H]12 (single isomer, unassigned) [Example 4]	< 100	
C=C(C)[C@@H]1CC[C@]2(CNCCCCN3CCS(=O)(=O)CC3)CC[C@]3(C)[C@H](CC[C@@H]4[C@@]5(C)CC=C(c6ccc(C(=O)O)cc6)C(C)(C)[C@@H]5CC[C@]43C)[C@@H]12 [Example 76, 4-((1R,3aS,5aR,5bR,7aR,11aS,11bR,13aR,13bR)-3a-(((4-(1,1-dioxido-4-thiomorpholinyl)butyl)amino)methyl)-1-isopropenyl-5a,5b,8,8,11a-pentamethyl-2,3,3a,4,5,5a,5b,6,7,7a,8,11,11a,11b,12,13,13a,13b-octadecahydro-1H-cyclopenta[a]chrysen-9-yl)benzoic acid]	< 100	
C=C(C)[C@@H]1CC[C@]2(CNC(=O)CCC(=O)OC)CC[C@]3(C)[C@H](CC[C@@H]4[C@@]5(C)CC=C(c6ccc(C(=O)O)cc6)C(C)(C)[C@@H]5CC[C@]43C)[C@@H]12 [Example 170, 4-((1R,3aS,5aR,5bR,7aR,11aS,11bR,13aR,13bR)-3a-((4-methoxy-4-oxobutanamido)methyl)-5a,5b,8,8,11a-pentamethyl-1-(prop-1-en-2-yl)-2,3,3a,4,5,5a,5b,6,7,7a,8,11,11a,11b,12,13,13a,13b-octadecahydro-1H-cyclopenta[a]chrysen-9-yl)benzoic acid]	< 100	
C=C(C)[C@@H]1CC[C@]2(CNCC(=O)N3CCCCC3)CC[C@]3(C)[C@H](CC[C@@H]4[C@@]5(C)CC=C(c6ccc(C(=O)O)cc6)C(C)(C)[C@@H]5CC[C@]43C)[C@@H]12 [Example 110, 4-((1R,3aS,5aR,5bR,7aR,11aS,11bR,13aR,13bR)-5a,5b,8,8,11a-pentamethyl-3a-((2-oxo-2-(piperidin-1-yl)ethylamino)methyl)-1-(prop-1-en-2-yl)-2,3,3a,4,5,5a,5b,6,7,7a,8,11,11a,11b,12,13,13a,13b-octadecahydro-1H-cyclopenta[a]chrysen-9-yl)benzoic acid]	< 100	
C=C(C)[C@@H]1CC[C@]2(CNCCCN3CCCC3=O)CC[C@]3(C)[C@H](CC[C@@H]4[C@@]5(C)CC=C(c6ccc(C(=O)O)cc6F)C(C)(C)[C@@H]5CC[C@]43C)[C@@H]12 [Example 87, 3-fluoro-4-((1R,3aS,5aR,5bR,7aR,11aS,11bR,13aR,13bR)-5a,5b,8,8,11a-pentamethyl-3a-((3-(2-oxopyrrolidin-1-yl)propylamino)methyl)-1-(prop-1-en-2-yl)-2,3,3a,4,5,5a,5b,6,7,7a,8,11,11a,11b,12,13,13a,13b-octadecahydro-1H-cyclopenta[a]chrysen-9-yl)benzoic acid]	< 100	
C=C(C)[C@@H]1CC[C@]2(CNC(=O)Nc3cccnc3)CC[C@]3(C)[C@H](CC[C@@H]4[C@@]5(C)CC=C(c6ccc(C(=O)O)cc6)C(C)(C)[C@@H]5CC[C@]43C)[C@@H]12 [Example 159, 4-((1R,3aS,5aR,5bR,7aR,11aS,11bR,13aR,13bR)-5a,5b,8,8,11a-pentamethyl-1-(prop-1-en-2-yl)-3a-((3-pyridin-3-ylureido)methyl)-2,3,3a,4,5,5a,5b,6,7,7a,8,11,11a,11b,12,13,13a,13b-octadecahydro-1H-cyclopenta[a]chrysen-9-yl)benzoic acid]		10
C=C(C)[C@@H]1CC[C@]2(CNCC3(CN4CCCC4)CC3)CC[C@]3(C)[C@H](CC[C@@H]4[C@@]5(C)CC=C(c6ccc(C(=O)O)cc6)C(C)(C)[C@@H]5CC[C@]43C)[C@@H]12 [Example 66, 4-((1R,3aS,5aR,5bR,7aR,11aS,11bR,13aR,13bR)-5a,5b,8,8,11a-pentamethyl-1-(prop-1-en-2-yl)-3a-(((1-(pyrrolidin-1-ylmethyl)cyclopropyl)methylamino)methyl)-2,3,3a,4,5,5a,5b,6,7,7a,8,11,11a,11b,12,13,13a,13b-octadecahydro-1H-cyclopenta[a]chrysen-9-yl)benzoic acid]	< 100	
C=C(C)[C@@H]1CC[C@]2(CNCCCN(C)C)CC[C@]3(C)[C@H](CC[C@@H]4[C@@]5(C)CC=C(c6ccc(C(=O)O)cc6)C(C)(C)[C@@H]5CC[C@]43C)[C@@H]12 [Example 6, 4-((1R,3aS,5aR,5bR,7aR,11aS,11bR,13aR,13bR)-3a-((3-(dimethylamino)propylamino)methyl)-5a,5b,8,8,11a-pentamethyl-1-(prop-1-en-2-yl)-2,3,3a,4,5,5a,5b,6,7,7a,8,11,11a,11b,12,13,13a,13b-octadecahydro-1H-cyclopenta[a]chrysen-9-yl)benzoic acid]		30
C=C(C)[C@@H]1CC[C@]2(CNC(=O)[C@@H]3CCCN3C)CC[C@]3(C)[C@H](CC[C@@H]4[C@@]5(C)CC=C(c6ccc(C(=O)O)cc6)C(C)(C)[C@@H]5CC[C@]43C)[C@@H]12 [Example 150, 4-((1R,3aS,5aR,5bR,7aR,11aS,11bR,13aR,13bR)-5a,5b,8,8,11a-pentamethyl-3a-(((S)-1-methylpyrrolidine-2-carboxamido)methyl)-1-(prop-1-en-2-yl)-2,3,3a,4,5,5a,5b,6,7,7a,8,11,11a,11b,12,13,13a,13b-octadecahydro-1H-cyclopenta[a]chrysen-9-yl)benzoic acid]	< 100	
C=C(C)[C@@H]1CC[C@]2(CNCCc3ccc(C(=O)O)cc3)CC[C@]3(C)[C@H](CC[C@@H]4[C@@]5(C)CC=C(c6ccc(C(=O)O)cc6)C(C)(C)[C@@H]5CC[C@]43C)[C@@H]12 [Example 47, 4-((1R,3aS,5aR,5bR,7aR,11aS,11bR,13aR,13bR)-3a-((4-carboxyphenethylamino)methyl)-5a,5b,8,8,11a-pentamethyl-1-(prop-1-en-2-yl)-2,3,3a,4,5,5a,5b,6,7,7a,8,11,11a,11b,12,13,13a,13b-octadecahydro-1H-cyclopenta[a]chrysen-9-yl)benzoic acid]	< 100	
C=C(C)[C@@H]1CC[C@]2(CNC(=O)NCC(=O)O)CC[C@]3(C)[C@H](CC[C@@H]4[C@@]5(C)CC=C(c6ccc(C(=O)O)cc6)C(C)(C)[C@@H]5CC[C@]43C)[C@@H]12 [Example 157, 4-((1R,3aS,5aR,5bR,7aR,11aS,11bR,13aR,13bR)-3a-((3-(carboxymethyl)ureido)methyl)-5a,5b,8,8,11a-pentamethyl-1-(prop-1-en-2-yl)-2,3,3a,4,5,5a,5b,6,7,7a,8,11,11a,11b,12,13,13a,13b-octadecahydro-1H-cyclopenta[a]chrysen-9-yl)benzoic acid]		40
